Activity calls are given as the source filed them. The rule behind the calls is not given here.
Key:
[1] = Half life in dog at 1 to 3 mg/kg, po; format: ADME, organism-based, Canis lupus familiaris; set-up: dose 1-3 mg/kg, route oral; conditions: in vivo
[2] = Drug excretion in bile duct cannulated rat bile assessed as compound remaining by HPLC analysis; format: ADME, tissue-based; conditions: in vivo
[3] = biological target: Sigma non-opioid intracellular receptor 1 (Homo sapiens, UniProt Q99720); experiment: Inhibition of sigma-1 receptor (unknown origin)
Sequence of Sigma non-opioid intracellular receptor 1 (Q99720 whole entry): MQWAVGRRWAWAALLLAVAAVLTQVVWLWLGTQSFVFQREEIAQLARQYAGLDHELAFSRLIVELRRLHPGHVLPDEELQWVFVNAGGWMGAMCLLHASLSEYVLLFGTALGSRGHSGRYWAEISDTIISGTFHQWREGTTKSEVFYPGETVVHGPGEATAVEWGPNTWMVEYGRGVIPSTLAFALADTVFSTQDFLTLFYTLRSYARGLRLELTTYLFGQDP

[4] = biological target: 11-beta-hydroxysteroid dehydrogenase 1 (Mus musculus, UniProt P50172); experiment: Inhibition of N-terminal 6-His-tagged mouse full length 11beta-HSD1 assessed as conversion of cortisone to cortisol after 25 mins by HTRF assay
Sequence of 11-beta-hydroxysteroid dehydrogenase 1 (Mus musculus, UniProt P50172) (P50172 whole entry): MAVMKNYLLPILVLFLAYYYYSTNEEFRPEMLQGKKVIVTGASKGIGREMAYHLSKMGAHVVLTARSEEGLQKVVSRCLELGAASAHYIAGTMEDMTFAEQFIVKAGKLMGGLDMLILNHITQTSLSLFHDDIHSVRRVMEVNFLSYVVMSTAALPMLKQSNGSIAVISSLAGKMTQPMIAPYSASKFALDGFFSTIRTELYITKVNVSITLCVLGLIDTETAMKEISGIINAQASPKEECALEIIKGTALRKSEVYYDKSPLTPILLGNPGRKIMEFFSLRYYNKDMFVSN

[5] = Half life in dog at 1 to 3 mg/kg, iv; format: ADME, organism-based, Canis lupus familiaris; set-up: dose 1-3 mg/kg, route intravenous; conditions: in vivo
[6] = biological target: T1, 17-beta-hydroxysteroid dehydrogenase type 3 (Homo sapiens, UniProt P37058); experiment: Inhibition of recombinant 17beta-HSD3 (unknown origin) assessed as conversion of androstenedione to testosterone after 90 mins by scintillation counting analysis
T1 sequence (P37058 whole entry): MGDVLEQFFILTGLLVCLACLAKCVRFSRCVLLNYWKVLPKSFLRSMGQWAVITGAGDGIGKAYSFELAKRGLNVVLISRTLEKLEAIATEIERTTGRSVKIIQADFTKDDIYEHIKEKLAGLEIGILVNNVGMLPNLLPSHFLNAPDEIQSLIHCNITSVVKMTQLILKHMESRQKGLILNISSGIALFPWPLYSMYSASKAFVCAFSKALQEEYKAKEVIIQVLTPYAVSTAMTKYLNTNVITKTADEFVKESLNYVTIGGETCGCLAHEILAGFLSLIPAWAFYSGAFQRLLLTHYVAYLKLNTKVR

[7] = biological target: Voltage-gated inwardly rectifying potassium channel KCNH2 (Homo sapiens, UniProt Q12809); experiment: Inhibition of human ERG
Sequence of Voltage-gated inwardly rectifying potassium channel KCNH2 (Q12809 whole entry): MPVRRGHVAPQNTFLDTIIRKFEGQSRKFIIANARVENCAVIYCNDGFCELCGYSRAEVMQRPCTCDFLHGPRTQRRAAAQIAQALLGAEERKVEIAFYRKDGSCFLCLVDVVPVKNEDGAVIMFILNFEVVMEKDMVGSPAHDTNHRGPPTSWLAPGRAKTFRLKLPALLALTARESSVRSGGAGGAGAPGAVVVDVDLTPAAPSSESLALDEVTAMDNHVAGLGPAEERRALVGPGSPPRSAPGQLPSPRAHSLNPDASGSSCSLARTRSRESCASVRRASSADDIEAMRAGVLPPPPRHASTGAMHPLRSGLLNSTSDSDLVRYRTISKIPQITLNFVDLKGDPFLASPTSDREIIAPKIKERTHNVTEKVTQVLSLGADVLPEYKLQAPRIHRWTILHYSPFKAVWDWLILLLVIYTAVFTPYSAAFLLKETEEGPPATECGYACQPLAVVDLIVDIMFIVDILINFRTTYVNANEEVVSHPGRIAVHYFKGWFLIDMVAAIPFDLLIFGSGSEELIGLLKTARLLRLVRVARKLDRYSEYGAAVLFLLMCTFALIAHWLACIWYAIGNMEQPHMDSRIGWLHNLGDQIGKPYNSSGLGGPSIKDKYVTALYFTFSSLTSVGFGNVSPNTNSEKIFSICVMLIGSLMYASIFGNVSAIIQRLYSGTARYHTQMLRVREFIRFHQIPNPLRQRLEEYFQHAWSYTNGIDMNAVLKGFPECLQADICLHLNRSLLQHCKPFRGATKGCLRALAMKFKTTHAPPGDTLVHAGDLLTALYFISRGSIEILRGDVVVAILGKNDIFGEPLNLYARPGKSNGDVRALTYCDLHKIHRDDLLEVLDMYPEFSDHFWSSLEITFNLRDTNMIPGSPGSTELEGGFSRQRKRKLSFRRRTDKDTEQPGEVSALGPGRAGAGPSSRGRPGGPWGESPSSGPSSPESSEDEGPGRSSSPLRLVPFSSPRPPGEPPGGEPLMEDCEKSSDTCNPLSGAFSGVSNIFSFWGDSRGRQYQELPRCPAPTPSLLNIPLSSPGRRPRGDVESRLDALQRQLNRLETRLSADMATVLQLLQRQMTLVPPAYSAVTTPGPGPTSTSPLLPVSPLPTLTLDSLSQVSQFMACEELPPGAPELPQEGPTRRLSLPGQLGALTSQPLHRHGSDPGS

[8] = Half life in rat at 1 to 3 mg/kg, iv; format: ADME, organism-based; set-up: dose 1-3 mg/kg, route intravenous; conditions: in vivo
[9] = Drug metabolism in rat hepatocytes assessed as compound remaining by LC-MS/MS analysis; format: ADME, cell-based, Hepatocyte
[10] = biological target: 11-beta-hydroxysteroid dehydrogenase 1 (Rattus norvegicus, UniProt P16232); experiment: Inhibition of N-terminal 6-His-tagged rat full length 11beta-HSD1 assessed as conversion of cortisone to cortisol after 25 mins by HTRF assay
Sequence of 11-beta-hydroxysteroid dehydrogenase 1 (Rattus norvegicus, UniProt P16232) (P16232 whole entry): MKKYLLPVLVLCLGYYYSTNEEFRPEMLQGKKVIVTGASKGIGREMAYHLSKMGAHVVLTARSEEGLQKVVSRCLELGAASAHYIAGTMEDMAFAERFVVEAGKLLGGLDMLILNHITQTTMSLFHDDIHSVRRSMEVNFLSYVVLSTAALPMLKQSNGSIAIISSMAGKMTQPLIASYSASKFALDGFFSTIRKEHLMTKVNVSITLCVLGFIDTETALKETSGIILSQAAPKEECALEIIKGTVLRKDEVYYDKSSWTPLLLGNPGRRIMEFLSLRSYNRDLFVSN

CYP3A4 = CYP3A4 (Homo sapiens, UniProt P08684); experiment: Inhibition of CYP3A4 (unknown origin) at 10 uM relative to control; format: ADME
Sequence of CYP3A4 (P08684 whole entry): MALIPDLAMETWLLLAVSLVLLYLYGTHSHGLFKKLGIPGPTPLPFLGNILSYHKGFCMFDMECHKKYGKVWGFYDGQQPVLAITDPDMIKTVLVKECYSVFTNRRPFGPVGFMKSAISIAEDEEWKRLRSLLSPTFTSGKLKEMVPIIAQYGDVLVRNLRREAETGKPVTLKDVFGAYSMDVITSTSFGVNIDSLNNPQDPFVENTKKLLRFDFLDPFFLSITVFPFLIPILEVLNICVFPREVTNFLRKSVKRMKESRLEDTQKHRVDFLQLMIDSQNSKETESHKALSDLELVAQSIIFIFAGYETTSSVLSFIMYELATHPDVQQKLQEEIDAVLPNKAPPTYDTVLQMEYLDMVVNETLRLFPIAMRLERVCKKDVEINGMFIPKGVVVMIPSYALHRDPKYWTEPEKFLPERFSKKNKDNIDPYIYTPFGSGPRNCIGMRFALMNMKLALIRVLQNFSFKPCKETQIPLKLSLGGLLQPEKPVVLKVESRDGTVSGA

[11] = biological target: T2, 11-beta-hydroxysteroid dehydrogenase 1 (Homo sapiens, UniProt P28845)
T2 sequence (P28845 whole entry): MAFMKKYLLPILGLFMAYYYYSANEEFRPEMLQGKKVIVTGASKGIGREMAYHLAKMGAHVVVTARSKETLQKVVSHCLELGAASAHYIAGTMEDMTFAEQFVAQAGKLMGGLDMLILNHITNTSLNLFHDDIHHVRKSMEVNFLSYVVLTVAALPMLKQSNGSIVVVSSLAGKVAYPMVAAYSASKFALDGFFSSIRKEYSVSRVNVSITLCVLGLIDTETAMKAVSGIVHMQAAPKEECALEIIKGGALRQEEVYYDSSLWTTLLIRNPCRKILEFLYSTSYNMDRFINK
Description: Inhibition of N-terminal 6-His-tagged human full length 11beta-HSD1 assessed as conversion of cortisone to cortisol after 25 mins by HTRF assay

[12] = Half life in mouse at 1 to 3 mg/kg, iv; format: ADME, organism-based; set-up: dose 1-3 mg/kg, route intravenous; conditions: in vivo
[13] = biological target: T2, 11-beta-hydroxysteroid dehydrogenase 1; experiment: Inhibition of 11beta-HSD1 in human adipocytes assessed as conversion of [3H]-cortisone to [3H]-cortisol by scintillation counting analysis; format: cell-based
[14] = Volume of distribution at steady state in dog at 1 to 3 mg/kg; format: ADME, organism-based, Canis lupus familiaris; set-up: dose 1-3 mg/kg; conditions: in vivo, read-out: Vdss
Mus musculus = experiment: Ex vivo inhibition of 11beta-HSD1-mediated conversion of [3H]-cortisone to [3H]-cortisol in C57Bl6J mouse adipose tissue at 30 mg/kg, po after 1 hr by scintillation counting analysis relative to control; format: functional
[15] = Drug metabolism in human hepatocytes assessed as compound remaining by LC-MS/MS analysis; format: ADME, cell-based, Hepatocyte
[16] = Fraction unbound in human plasma by equilibrium dialysis technique; format: ADME, cell-free
[17] = Inhibition of N-terminal 6-His-tagged dog full length 11beta-HSD1 assessed as conversion of cortisone to cortisol after 25 mins by HTRF assay; set-up: species or system Canis lupus familiaris
[18] = Fraction unbound in dog plasma by equilibrium dialysis technique; format: ADME, cell-free, Canis lupus familiaris
[19] = biological target: T3, Glucocorticoid receptor (Homo sapiens) (UniProt P04150); experiment: Activity at glucocorticoid receptor (unknown origin)
T3 sequence (whole entry): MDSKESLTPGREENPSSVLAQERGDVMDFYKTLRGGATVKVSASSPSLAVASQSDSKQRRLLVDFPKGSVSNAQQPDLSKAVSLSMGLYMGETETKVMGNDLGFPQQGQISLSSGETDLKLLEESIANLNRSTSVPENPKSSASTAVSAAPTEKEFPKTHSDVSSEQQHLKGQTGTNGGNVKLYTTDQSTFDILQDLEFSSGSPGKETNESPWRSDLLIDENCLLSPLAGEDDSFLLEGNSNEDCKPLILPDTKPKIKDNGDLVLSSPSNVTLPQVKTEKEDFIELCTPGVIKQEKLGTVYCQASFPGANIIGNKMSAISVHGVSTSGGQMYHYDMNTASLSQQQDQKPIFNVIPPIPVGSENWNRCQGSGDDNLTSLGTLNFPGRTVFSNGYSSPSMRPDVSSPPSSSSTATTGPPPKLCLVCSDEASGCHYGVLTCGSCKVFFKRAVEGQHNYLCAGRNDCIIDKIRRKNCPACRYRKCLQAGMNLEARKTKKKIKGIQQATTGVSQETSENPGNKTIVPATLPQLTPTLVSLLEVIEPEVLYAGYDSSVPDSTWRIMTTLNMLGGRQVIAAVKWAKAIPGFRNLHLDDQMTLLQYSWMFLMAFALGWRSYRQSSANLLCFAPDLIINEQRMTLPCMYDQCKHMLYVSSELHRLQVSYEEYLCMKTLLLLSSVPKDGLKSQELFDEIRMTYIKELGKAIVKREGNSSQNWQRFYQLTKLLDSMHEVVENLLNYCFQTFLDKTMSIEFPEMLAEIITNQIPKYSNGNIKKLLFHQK

[20] = biological target: T4, 11-beta-hydroxysteroid dehydrogenase type 2 (Homo sapiens, UniProt P80365); experiment: Inhibition of recombinant 11beta-HSD2 (unknown origin) assessed as conversion of cortisol to cortisone after 40 mins by fluorescence assay
T4 sequence (P80365 whole entry): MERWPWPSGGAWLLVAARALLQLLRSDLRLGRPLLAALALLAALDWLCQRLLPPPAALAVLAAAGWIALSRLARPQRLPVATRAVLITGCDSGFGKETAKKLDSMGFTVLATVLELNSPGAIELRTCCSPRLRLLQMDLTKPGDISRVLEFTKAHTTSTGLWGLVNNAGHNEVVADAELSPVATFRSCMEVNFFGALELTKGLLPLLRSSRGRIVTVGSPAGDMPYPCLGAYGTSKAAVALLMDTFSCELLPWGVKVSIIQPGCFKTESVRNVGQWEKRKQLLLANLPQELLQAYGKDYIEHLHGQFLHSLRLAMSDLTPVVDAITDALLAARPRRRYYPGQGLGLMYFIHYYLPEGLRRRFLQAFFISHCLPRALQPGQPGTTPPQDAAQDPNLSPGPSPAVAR

[21] = Aqueous solubility of crystalline form of compound in phosphate buffer at pH 7.4 after 24 hrs by LC-UV analysis; format: physicochemical
Salmonella typhimurium = experiment: Genotoxicity in Salmonella typhimurium by Ames test; format: toxicity, organism-based; conditions: salmonella enterica subsp. enterica serovar typhimurium
[22] = Drug metabolism in dog hepatocytes assessed as compound remaining by LC-MS/MS analysis; format: ADME, cell-based, Canis lupus familiaris, Hepatocyte
[23] = Clearance in rat hepatocytes measured per 10^6 cells; format: ADME, cell-based, Hepatocyte; conditions: read-out: CLH
[24] = Octanol-buffer partition coefficient, log D of the compound at pH 7.4 after 30 mins by shake-flask method; format: physicochemical

half-life [1]: 27 h
Stability [2]: 52.8%
IC50 [3]: 30000 nM
IC50 [4]: 310 nM
half-life [5]: 15 h
IC50 [6]: 25000 nM
half-life [8]: 4.3 h
Stability [9]: 82%
IC50 [10]: 82 nM
inhibition at 10 µM (CYP3A4): < 25%
IC50 [11]: 6 nM
half-life [12]: 2.5 h
IC50 [13]: 4 nM
Vd [14]: 0.7 L/kg
Stability [15]: 94%
fraction unbound [16]: 0.011
IC50 [17]: 120 nM
fraction unbound [18]: 0.015
Activity [19]: inactive
IC50 [20]: > 30000 nM
solubility thermodynamic at 24 h [21]: > 3000 µM
Stability [22]: 92%
hepatocyte CLint [23]: 6 µL/min/1e6 cells
logD at 0.5 h [24]: 2.1
SMILES: CSc1nc(N2C[C@@H]3[C@H](C2)[C@H]3C(=O)O)ccc1C(=O)NC12CC3CC(CC(C3)C1)C2
IC50 [7]: > 30000 nM
inhibition in vivo at 30 mg/kg (Mus musculus): 50%
Activity (Salmonella typhimurium): Non-toxic

From ChEMBL document CHEMBL3217743, “Reduction of acyl glucuronidation in a series of acidic 11-hydroxysteroid dehydrogenase type 1 (11-HSD1) inhibitors: the discovery of AZD6925” (Medchemcomm, 2012)
